IC50 data for 6 compounds are collected here from article PMC7324419 (Human Cell, 2020).

Experiment [1] concerns A549 cell line (lung carcinoma from human). The experiment is classed as cell-based. Conditions: read-out: IC50 [µM] against A549.
Experiment [2] concerns HT29 cell line (colorectal adenocarcinoma from human). The experiment is classed as cell-based. Conditions: read-out: IC50 [µM] against HT29.
Experiment [3] has as its system EAhy926 cell line (the human umbilical vein, somatic cell hybrid). The experiment is classed as cell-based. Conditions: read-out: IC50 [µM] against EA.hy9263.
The target of experiment [4] is hyaluronidase from bovine testes Type I-S (Bos taurus, UniProt Q2YDK3). The format is biochemical. The note with it: read-out: IC50 (µM) hyaluronidase inhibition.
Sequence of hyaluronidase from bovine testes Type I-S (Q2YDK3 36-553 limits assumed): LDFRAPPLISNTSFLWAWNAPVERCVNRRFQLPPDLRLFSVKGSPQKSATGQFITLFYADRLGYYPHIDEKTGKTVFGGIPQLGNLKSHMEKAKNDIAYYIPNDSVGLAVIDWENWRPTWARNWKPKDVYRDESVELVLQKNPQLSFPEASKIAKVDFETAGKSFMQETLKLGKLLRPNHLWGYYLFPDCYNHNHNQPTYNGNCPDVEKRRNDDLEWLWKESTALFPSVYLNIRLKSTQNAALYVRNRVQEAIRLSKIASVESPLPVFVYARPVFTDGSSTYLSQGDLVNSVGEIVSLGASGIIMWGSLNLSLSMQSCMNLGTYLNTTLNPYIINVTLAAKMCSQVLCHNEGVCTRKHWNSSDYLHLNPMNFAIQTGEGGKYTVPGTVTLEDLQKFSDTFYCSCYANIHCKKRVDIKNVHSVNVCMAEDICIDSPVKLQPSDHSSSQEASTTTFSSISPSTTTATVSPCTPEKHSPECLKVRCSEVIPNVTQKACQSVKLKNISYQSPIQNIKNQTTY

The IC50 is the concentration needed to halve the response being measured. Consider `O=C(NCCCNc1c2c(nc3ccccc13)CCCC2)c1ccccc1F` [Compound 2], for which the IC50 in experiment [1] amounted to 148 µM; in experiment [2] it was 50.2 µM.

Turning to `COc1cc([C@@H]2c3cc4c(cc3[C@@H](O[C@@H]3O[C@@H]5CO[C@@H](C)O[C@H]5[C@H](O)[C@H]3O)[C@H]3COC(=O)[C@H]23)OCO4)cc(OC)c1O` [Compound C1, Etoposide], the IC50 is 155 µM in experiment [3], 451 µM in experiment [1] and 654 µM in experiment [2].

With heparin [Compound C3], the IC50 in experiment [4] was found to be 56.4 µM.

Take `O=c1[nH]cc(F)c(=O)[nH]1` [Compound C2, 5-fluorouracil]: the values for the IC50 in experiment [3], in experiment [1] and in experiment [2] were greater than 1800 µM, greater than 1800 µM and 1630 µM, respectively.

Take `O=C(NCCCNc1c2c(nc3ccccc13)CCCC2)c1cccc(F)c1` [Compound 5]: the IC50 in experiment [1] came to 118 µM; in experiment [2] it was 44 µM.

As for `O=C(NCCNc1c2c(nc3ccccc13)CCCC2)c1ccccc1F` [Compound 1], the IC50 in experiment [1] came out at 106 µM; in experiment [2], 68.4 µM.
